In PubChem BioAssay (NCI):
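Five concentrations, 48 hours, 96-well plates. GI50: concentration for 50% inhibition of growth. Definition used: TGI = concentration required for complete inhibition of growth.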

Tests used:
Assay in all cases: DTP human tumour cell line panel, 48 h
[1] = system: RXF 393 renal
[2] = system: IGROV1 ovarian
[3] = system: OVCAR-4 ovarian
[4] = system: MOLT-4 leukemia
[5] = system: MALME-3M melanoma
[6] = system: DU-145 prostate
[7] = system: PC-3 prostate
[8] = system: MDA-MB-231 breast
[9] = system: SK-MEL-2 melanoma
[10] = system: KM12 colon

SMILES: O=C(CCNC12CC3CC(CC(C3)C1)C2)c1ccccc1
- TGI [1]: 53.5 µM
- TGI [2]: 55.4 µM
- TGI [3]: > 100 µM
- TGI [4]: 35.3 µM
- TGI [5]: 32.1 µM
- TGI [6]: > 100 µM
- TGI [7]: 50.5 µM
- TGI [8]: 69.8 µM
- TGI [9]: 30 µM
- TGI [10]: 91.1 µM

SMILES: O=C1NC(=NCCc2cccc(F)c2)S/C1=C\c1ccc2ncccc2c1
- GI50 [1]: 4.4 µM
- TGI [1]: > 25 µM
- GI50 [2]: 5.15 µM
- TGI [2]: > 25 µM
- GI50 [3]: > 25 µM
- TGI [3]: > 25 µM
- GI50 [4]: 8.72 µM
- TGI [4]: > 25 µM
- GI50 [5]: 17.2 µM
- TGI [5]: > 25 µM
- GI50 [6]: 10.1 µM
- TGI [6]: > 25 µM
- GI50 [7]: > 25 µM
- TGI [7]: > 25 µM
- GI50 [8]: > 25 µM
- TGI [8]: > 25 µM
- GI50 [9]: 15.8 µM
- TGI [9]: > 25 µM
- GI50 [10]: 1.07 µM
- TGI [10]: > 25 µM

SMILES: COc1cc2c(c(OC)c1OC)-c1ccc(NNC(N)=S)c(=O)cc1[C@@H](NC(C)=O)CC2
- GI50 [1]: 0.298 µM
- TGI [1]: 0.747 µM
- GI50 [2]: 1.18 µM
- TGI [2]: > 100 µM
- GI50 [3]: 0.625 µM
- TGI [3]: > 100 µM
- GI50 [4]: 0.568 µM
- TGI [4]: > 100 µM
- GI50 [5]: 2.8 µM
- TGI [5]: > 100 µM
- GI50 [6]: 0.341 µM
- TGI [6]: 1.44 µM
- GI50 [7]: 0.29 µM
- TGI [7]: > 100 µM
- GI50 [8]: 0.327 µM
- TGI [8]: 3.52 µM
- TGI [9]: > 100 µM
- GI50 [10]: 0.301 µM
- TGI [10]: 1.92 µM

SMILES: FC(F)(F)c1cccc(Nc2nc(-c3ccccc3)nc3ncccc23)c1
- GI50 [1]: 2.21 µM
- TGI [1]: 5.66 µM
- GI50 [2]: 4.25 µM
- TGI [2]: 16.8 µM
- GI50 [3]: 8.05 µM
- TGI [3]: 45.6 µM
- GI50 [4]: 3.11 µM
- TGI [4]: 9.04 µM
- GI50 [5]: 5.63 µM
- TGI [5]: 28.7 µM
- GI50 [6]: 4.72 µM
- TGI [6]: 21.8 µM
- GI50 [7]: 3.34 µM
- TGI [7]: 13.2 µM
- GI50 [8]: 4.88 µM
- TGI [8]: 41.2 µM
- GI50 [9]: 6.57 µM
- TGI [9]: 25.5 µM
- GI50 [10]: 4.3 µM
- TGI [10]: > 100 µM

SMILES: Fc1ccc(NC(=S)SCc2ccc3c(c2)OCO3)cc1F
- TGI [1]: 32.2 µM
- TGI [2]: 39.6 µM
- TGI [3]: > 100 µM
- TGI [4]: 39.8 µM
- TGI [5]: 76.3 µM
- TGI [6]: > 100 µM
- TGI [7]: 76.6 µM
- TGI [8]: > 100 µM
- TGI [9]: 36 µM
- TGI [10]: 61.7 µM

SMILES: O=C1/C(=C/c2ccc(O)c(O)c2)CCC/C1=C\c1ccc(O)c(O)c1
- TGI [1]: 9.5 µM
- TGI [2]: 15.9 µM
- TGI [3]: 41.9 µM
- TGI [4]: > 44 µM
- TGI [5]: 7.05 µM
- TGI [6]: 17.5 µM
- TGI [7]: 19 µM
- TGI [8]: 37.4 µM
- TGI [9]: 13.1 µM
- TGI [10]: 13.8 µM

SMILES: CCN1CCN(Cc2ccc(NC(=O)c3cccc(C#Cc4cccc5[nH]nc(N)c45)c3)cc2C(F)(F)F)CC1
- GI50 [1]: 0.287 µM
- TGI [1]: 0.918 µM
- GI50 [2]: 0.0681 µM
- TGI [2]: 0.717 µM
- GI50 [3]: 0.198 µM
- TGI [3]: 1.61 µM
- GI50 [4]: 0.227 µM
- TGI [4]: 1.16 µM
- GI50 [5]: 0.0273 µM
- TGI [5]: 0.422 µM
- GI50 [6]: 0.419 µM
- TGI [6]: 1.68 µM
- GI50 [7]: 1.36 µM
- TGI [7]: 3.13 µM
- GI50 [8]: 0.12 µM
- TGI [8]: 0.573 µM
- GI50 [9]: 0.352 µM
- TGI [9]: 1.34 µM
- GI50 [10]: 0.302 µM
- TGI [10]: 1.33 µM

SMILES: COC(=O)/C=C1\S/C(=N\NC(=O)c2cc3ccc2/C=C\c2ccc(cc2)/C=C\3)N(c2ccccc2)C1=O
- GI50 [1]: 1.52 µM
- TGI [1]: 3.86 µM
- GI50 [2]: 1.66 µM
- TGI [2]: 3.27 µM
- GI50 [3]: 3.17 µM
- TGI [3]: 9.88 µM
- GI50 [4]: 3.12 µM
- TGI [4]: > 100 µM
- GI50 [5]: 3.27 µM
- TGI [5]: 21.4 µM
- GI50 [6]: 5.11 µM
- TGI [6]: 35.3 µM
- GI50 [7]: 1.71 µM
- TGI [7]: 3.63 µM
- GI50 [8]: 2.63 µM
- TGI [8]: 7.46 µM
- GI50 [9]: 2.65 µM
- TGI [9]: 7.76 µM
- GI50 [10]: 2.03 µM
- TGI [10]: 4.15 µM
